# Results: publication PMC4259414, “HS-133, a novel fluorescent phosphatidylinositol 3-kinase inhibitor as a potential imaging and anticancer agent for targeted therapy” (Oncotarget, 2014)
# Legend:
# Format in all cases: cell-based, human
# [1] = system: SkBr3 cells; test: cell cycle analysis by PI staining and flow cytometry; settings: SkBr3, 1, 10, 50 μM, 24 h
# Procedure: To examine the relationship between the growth inhibitory effect of HS-133 and cell cycle progression, we analyzed cell cycle distribution of SkBr3 cells by HS-133 using a flow cytometry. The SkBr3 cells were treated for 24 h with various concentrations of HS-133 (1, 10, 50 μM) and collected and stained with PI and then analyzed by FACS. […] The up-regulation of p27, cyclin dependent kinase (CDK) inhibitor, is related to G0/G1 cell cycle arrest and contributes to the down-regulation of cyclin D1 [31]. Thus, we evaluated the effect of HS-133 on the protein expressions of p27 and cyclin D1. HS-133 increased the expression of p27 while decreasing cyclin D1 expression (Fig. 4C).
# The SkBr3 cells were plated in 100 mm-diameter culture dishes. On the following day, the cells were treated with various concentrations of HS-133 or 0.1% DMSO for 24 h. The floating and adherent cells were collected and fixed in cold 70% ethanol at 4°C overnight. […] The events were evaluated for each sample and the cell cycle distribution was analyzed using Cell Quest software (Becton Dickinson). The results were presented as the number of cells versus the amount of DNA, as indicated by the intensity of a fluorescence signal. […]
# [2] = system: SkBr3 cells; test: apoptosis: Western blotting and TUNEL assay
# Description: Since PI3K and its downstream effectors appear to mediate anti-apoptotic signals, we examined the effect of HS-133 on apoptosis. […] We also observed that the levels of Bax, pro-apoptotic protein, were increased by HS-133 treatment in a dose-dependent manner. Furthermore, induction of apoptosis by HS-133 was confirmed by visualizing the fragmented DNA with TUNEL staining (Fig. 5B).
# (§1) The cells were washed three times with ice-cold PBS before lysis, and were lysed with a buffer containing 1% Triton X-100, 1% Nonidet P-40 (NP-40), as well as protease and phosphatase inhibitor cocktails (GenDEPOT, Barker, TX). Equal amounts of protein were separated by 10% sodium dodecyl sulfate-polyacrylamide gel electrophoresis (SDS-PAGE) and transferred onto the polyvinylidene fluoride (PVDF) membranes (Millipore, Bedford, MA). Immunostaining was performed by incubating the blots with primary antibodies, followed by horseradish peroxidase (HRP)-conjugated secondary antibody and detected with an enhanced chemiluminescence (ECL) plus system (Amersham Biosciences, Piscataway, NJ). […]
# The SkBr3 cells were plated on 18-mm cover glasses in DMEM medium and incubated for 24 h so that approximately 70% confluence was reached. […] The stained cells were examined for a fluorescence of nuclear fragmentation. […]
# [3] = system: HIF-1α and VEGF in SkBr3 cells; test: hypoxia-induced HIF-1α and VEGF, Western blotting and ELISA
# Procedure: Since HIF-1α is the major regulator of cellular adaptive responses to hypoxia, we examined the effect of HS-133 on the expression of the HIF-1α in SkBr3 cells. The cells were treated with various concentrations of HS-133 (1–50 μM) under hypoxic mimicking conditions induced by a treatment with 100 μM CoCl2 for 16 h. […] To further determine the effect of HS-133 on hypoxia-induced VEGF, an immediate downstream target gene of HIF-1α, the protein and production of VEGF were measured by western blotting and ELISA in the SkBr3 cells.
# as §1
# The amount of VEGF secreted into the media was measured by sandwich ELISA. […] The absorbance at 450 nm was measured with a 96-well plate reader.
# [4] = system: HUVECs; test: wound migration assay; settings: HUVECs, 1, 5, or 10 μM, 18 h
# Procedure: To examine the effect of HS-133 on angiogenesis, a capillary tube formation assay using human umbilical vein endothelial cells (HUVECs) was performed. […] Cell migration is critical for the endothelial cells to form blood vessels during angiogenesis, and is necessary for tumor growth and metastasis. Thus, we conducted a wound migration assay to study the effect of HS-133 on cell migration. […] Considering that endothelial migration and tube formation have all highly relevant properties of angiogenesis, our results illustrated that HS-133 has the ability to block angiogenesis.
# HUVECs plated on 60 mm-diameter culture dishes at 90% confluence, were wounded 2 mm in width with a sterile razor blade and marked at the injury line. […] HUVECs were allowed to migrate for 18 h and were rinsed with a serum-free medium, followed by fixing with absolute methanol and staining with Giemsa (Sigma-Aldrich). Migration was quantitated with counting the number of cells that moved beyond the reference line.
smiles,measurement,setting,value
"CC(=O)Nc1ccc(-c2nc3c(c(=O)n(C)c(=O)n3C)n2-c2cccc(F)c2)cc1 [HS-133, N-(4-(7-(3-Fluorophenyl)-1,3-dimethyl-2,6-dioxo-2,3,6,7-tetrahydro-1H-purin-8-yl)phenyl) acetamide]",cell cycle distribution,[1],increased the number of cells in the G0/G1 phase
same,"induction of apoptosis (cleavage of PARP and caspases, Bax, TUNEL)",[2],could induce apoptosis
same,hypoxia-induced HIF-1α expression,"[3]; SkBr3, 1–50 μM, 100 μM CoCl2, 16 h",inhibited the hypoxia-induced HIF-1α expression
same,hypoxia-induced VEGF expression and production,"[3]; SkBr3, CoCl2, Western blotting and ELISA",suppress the VEGF expression and production in a dose-dependent manner
same,cell migration,[4],significantly inhibited
